Laboratory results as given in the supplement of paper PMC10307832.

What was measured:
Assay in all cases: relative viability (nuclei count vs DMSO), 5 days (fraction); higher = more cells survive
[1] = compound: Cc1ccc(C(=O)N(CCCN)[C@@H](c2nc3cc(Cl)ccc3c(=O)n2Cc2ccccc2)C(C)C)cc1 [Ispinesib] + NC(=O)Nc1cc(-c2cccc(F)c2)sc1C(=O)N[C@H]1CCCNC1 [AZD7762] (partner 0.2 µM)
How it was run: (§1)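 Five library-drug doses in √10 steps were combined with a fixed anchor-drug dose, or a single drug was given alone, by pin tool to lung cancer cell lines in 1536-well plates the day after seeding. Nuclei were stained and counted after 5 days. Relative viability is the nuclei count in treated wells over that in vehicle wells, taken as the median of duplicate plates.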

[2] = compound: C[C@]1(O)C[C@@H](c2nc(-c3ccc4ccc(-c5ccccc5)nc4c3)c3c(N)nccn32)C1 [Linsitinib] + CS(=O)(=O)N1CCN(Cc2cc3nc(-c4cccc5[nH]ncc45)nc(N4CCOCC4)c3s2)CC1 [Pictilisib] (partner 1 µM)
How it was run: as §1

[3] = compound: Cc1ccc(C(=O)N(CCCN)[C@@H](c2nc3cc(Cl)ccc3c(=O)n2Cc2ccccc2)C(C)C)cc1 [Ispinesib] + CC1(C)CCC(c2ccc(Cl)cc2)=C(CN2CCN(c3ccc(C(=O)NS(=O)(=O)c4ccc(N[C@H](CCN5CCOCC5)CSc5ccccc5)c(S(=O)(=O)C(F)(F)F)c4)cc3)CC2)C1 [Navitoclax] (partner 0.5 µM)
How it was run: as §1

[4] = compound: Cc1ccc(C(=O)N(CCCN)[C@@H](c2nc3cc(Cl)ccc3c(=O)n2Cc2ccccc2)C(C)C)cc1 [Ispinesib] + Nc1nc2[nH]cc(CCc3ccc(C(=O)N[C@@H](CCC(=O)O)C(=O)O)cc3)c2c(=O)[nH]1 [Pemetrexed] (partner 0.2 µM)
How it was run: as §1

HCC-827
relative viability ([1]; first compound 0.001 µM): 0.229
relative viability ([1]; first compound 0.003162 µM): 0.21
relative viability ([1]; first compound 0.01 µM): 0.146
relative viability ([1]; first compound 0.03162 µM): 0.198
relative viability ([1]; first compound 0.1 µM): 0.197
relative viability ([2]; first compound 0.01 µM): 1.07
relative viability ([2]; first compound 0.03162 µM): 1.19
relative viability ([2]; first compound 0.1 µM): 1.11
relative viability ([2]; first compound 0.3162 µM): 0.88
relative viability ([2]; first compound 1 µM): 1.12
relative viability ([3]; first compound 0.001 µM): 0.996
relative viability ([3]; first compound 0.003162 µM): 1.06
relative viability ([3]; first compound 0.01 µM): 1.03
relative viability ([3]; first compound 0.03162 µM): 1
relative viability ([3]; first compound 0.1 µM): 1.01
relative viability ([4]; first compound 0.001 µM): 0.25
relative viability ([4]; first compound 0.003162 µM): 0.259
relative viability ([4]; first compound 0.01 µM): 0.274
relative viability ([4]; first compound 0.03162 µM): 0.248
relative viability ([4]; first compound 0.1 µM): 0.235

HOP-62
relative viability ([1]; first compound 0.001 µM): 0.441
relative viability ([1]; first compound 0.003162 µM): 0.848
relative viability ([1]; first compound 0.01 µM): 0.679
relative viability ([1]; first compound 0.03162 µM): 0.482
relative viability ([1]; first compound 0.1 µM): 0.214
relative viability ([2]; first compound 0.01 µM): 0.894
relative viability ([2]; first compound 0.03162 µM): 0.715
relative viability ([2]; first compound 0.1 µM): 0.934
relative viability ([2]; first compound 1 µM): 0.356
relative viability ([3]; first compound 0.001 µM): 1.19
relative viability ([3]; first compound 0.003162 µM): 1.12
relative viability ([3]; first compound 0.01 µM): 1.53
relative viability ([3]; first compound 0.03162 µM): 1.12
relative viability ([3]; first compound 0.1 µM): 0.171
relative viability ([4]; first compound 0.001 µM): 0.319
relative viability ([4]; first compound 0.003162 µM): 0.327
relative viability ([4]; first compound 0.01 µM): 0.34
relative viability ([4]; first compound 0.03162 µM): 0.26
relative viability ([4]; first compound 0.1 µM): 0.117

LC-2-ad
relative viability ([1]; first compound 0.001 µM): 0.942
relative viability ([1]; first compound 0.003162 µM): 0.941
relative viability ([1]; first compound 0.01 µM): 1.02
relative viability ([1]; first compound 0.03162 µM): 0.425
relative viability ([1]; first compound 0.1 µM): 0.322
relative viability ([2]; first compound 0.01 µM): 0.423
relative viability ([2]; first compound 0.03162 µM): 0.369
relative viability ([2]; first compound 0.1 µM): 0.409
relative viability ([2]; first compound 0.3162 µM): 0.396
relative viability ([2]; first compound 1 µM): 0.269
relative viability ([3]; first compound 0.001 µM): 0.391
relative viability ([3]; first compound 0.003162 µM): 0.487
relative viability ([3]; first compound 0.01 µM): 0.474
relative viability ([3]; first compound 0.03162 µM): 0.171
relative viability ([3]; first compound 0.1 µM): 0.122
relative viability ([4]; first compound 0.001 µM): 0.288
relative viability ([4]; first compound 0.003162 µM): 0.259
relative viability ([4]; first compound 0.01 µM): 0.262
relative viability ([4]; first compound 0.03162 µM): 0.23
relative viability ([4]; first compound 0.1 µM): 0.149

LCLC-97TM1
relative viability ([1]; first compound 0.001 µM): 0.322
relative viability ([1]; first compound 0.003162 µM): 0.348
relative viability ([1]; first compound 0.01 µM): 0.326
relative viability ([1]; first compound 0.03162 µM): 0.247
relative viability ([1]; first compound 0.1 µM): 0.119
relative viability ([2]; first compound 0.01 µM): 0.283
relative viability ([2]; first compound 0.03162 µM): 0.254
relative viability ([2]; first compound 0.1 µM): 0.208
relative viability ([2]; first compound 0.3162 µM): 0.117
relative viability ([2]; first compound 1 µM): 0.154
relative viability ([3]; first compound 0.001 µM): 0.433
relative viability ([3]; first compound 0.003162 µM): 0.489
relative viability ([3]; first compound 0.01 µM): 0.52
relative viability ([3]; first compound 0.03162 µM): 0.557
relative viability ([3]; first compound 0.1 µM): 0.157
relative viability ([4]; first compound 0.001 µM): 0.186
relative viability ([4]; first compound 0.003162 µM): 0.168
relative viability ([4]; first compound 0.01 µM): 0.173
relative viability ([4]; first compound 0.03162 µM): 0.167
relative viability ([4]; first compound 0.1 µM): 0.0653

LK-2
relative viability ([1]; first compound 0.001 µM): 0.358
relative viability ([1]; first compound 0.003162 µM): 0.552
relative viability ([1]; first compound 0.01 µM): 0.306
relative viability ([1]; first compound 0.03162 µM): 0.154
relative viability ([1]; first compound 0.1 µM): 0.185
relative viability ([2]; first compound 0.01 µM): 0.698
relative viability ([2]; first compound 0.03162 µM): 0.529
relative viability ([2]; first compound 0.1 µM): 0.553
relative viability ([2]; first compound 0.3162 µM): 0.494
relative viability ([2]; first compound 1 µM): 0.851
relative viability ([3]; first compound 0.001 µM): 0.93
relative viability ([3]; first compound 0.003162 µM): 0.808
relative viability ([3]; first compound 0.01 µM): 1.01
relative viability ([3]; first compound 0.03162 µM): 0.661
relative viability ([3]; first compound 0.1 µM): 0.298
relative viability ([4]; first compound 0.001 µM): 0.231
relative viability ([4]; first compound 0.003162 µM): 0.29
relative viability ([4]; first compound 0.01 µM): 0.294
relative viability ([4]; first compound 0.03162 µM): 0.269
relative viability ([4]; first compound 0.1 µM): 0.124

LOU-NH91
relative viability ([1]; first compound 0.001 µM): 0.807
relative viability ([1]; first compound 0.003162 µM): 0.854
relative viability ([1]; first compound 0.01 µM): 0.877
relative viability ([1]; first compound 0.03162 µM): 0.432
relative viability ([1]; first compound 0.1 µM): 0.297
relative viability ([2]; first compound 0.01 µM): 0.49
relative viability ([2]; first compound 0.03162 µM): 0.515
relative viability ([2]; first compound 0.1 µM): 0.503
relative viability ([2]; first compound 0.3162 µM): 0.523
relative viability ([2]; first compound 1 µM): 0.457
relative viability ([3]; first compound 0.001 µM): 0.647
relative viability ([3]; first compound 0.003162 µM): 0.71
relative viability ([3]; first compound 0.01 µM): 0.64
relative viability ([3]; first compound 0.03162 µM): 0.407
relative viability ([3]; first compound 0.1 µM): 0.333
relative viability ([4]; first compound 0.001 µM): 0.387
relative viability ([4]; first compound 0.003162 µM): 0.428
relative viability ([4]; first compound 0.01 µM): 0.384
relative viability ([4]; first compound 0.03162 µM): 0.374
relative viability ([4]; first compound 0.1 µM): 0.323

LU99A
relative viability ([1]; first compound 0.001 µM): 0.474
relative viability ([1]; first compound 0.003162 µM): 0.368
relative viability ([1]; first compound 0.01 µM): 0.394
relative viability ([1]; first compound 0.03162 µM): 0.161
relative viability ([1]; first compound 0.1 µM): 0.14
relative viability ([2]; first compound 0.01 µM): 0.291
relative viability ([2]; first compound 0.03162 µM): 0.347
relative viability ([2]; first compound 0.1 µM): 0.315
relative viability ([2]; first compound 0.3162 µM): 0.204
relative viability ([2]; first compound 1 µM): 0.242
relative viability ([3]; first compound 0.001 µM): 0.857
relative viability ([3]; first compound 0.003162 µM): 0.757
relative viability ([3]; first compound 0.01 µM): 1.02
relative viability ([3]; first compound 0.03162 µM): 0.627
relative viability ([3]; first compound 0.1 µM): 0.141
relative viability ([4]; first compound 0.001 µM): 0.188
relative viability ([4]; first compound 0.003162 µM): 0.21
relative viability ([4]; first compound 0.01 µM): 0.163
relative viability ([4]; first compound 0.03162 µM): 0.163
relative viability ([4]; first compound 0.1 µM): 0.141

LXF-289
relative viability ([1]; first compound 0.001 µM): 1.09
relative viability ([1]; first compound 0.003162 µM): 1.12
relative viability ([1]; first compound 0.01 µM): 1.22
relative viability ([1]; first compound 0.03162 µM): 0.788
relative viability ([1]; first compound 0.1 µM): 0.119
relative viability ([2]; first compound 0.01 µM): 0.76
relative viability ([2]; first compound 0.03162 µM): 0.875
relative viability ([2]; first compound 0.1 µM): 0.738
relative viability ([2]; first compound 0.3162 µM): 0.539
relative viability ([2]; first compound 1 µM): 0.592
relative viability ([3]; first compound 0.001 µM): 0.934
relative viability ([3]; first compound 0.003162 µM): 0.995
relative viability ([3]; first compound 0.01 µM): 1.12
relative viability ([3]; first compound 0.03162 µM): 0.922
relative viability ([3]; first compound 0.1 µM): 0.469
relative viability ([4]; first compound 0.001 µM): 0.92
relative viability ([4]; first compound 0.003162 µM): 0.937
relative viability ([4]; first compound 0.01 µM): 0.973
relative viability ([4]; first compound 0.03162 µM): 0.769
relative viability ([4]; first compound 0.1 µM): 0.137
